From US7524861B2, “Process for the preparation of a hydrate of an anthranilic acid derivative” (priority 2002, dated 2009)

Experiment: Dehydration/re-hydration study (weight change over desiccants, then 33-95% RH, KF water content)
Format: physicochemical
Conditions: for KF moisture result: dehydration/rehydration sample
Experimental: The hexahydrate produced in Example 1 was analysed as follows. Four desiccator cabinets were prepared to contain open dishes of the following saturated salt solutions, to achieve the following approximate relative humidities (RH).
Dehydration of samples was carried out by storing them over silica gel or over P2O5 at reduced pressure (65 mm Hg). All studies were performed at ambient laboratory temperature (15-22° C.).
During this study, samples were dispensed to pre-equilibrated weighing bottles as in the hygroscopicity study, and were then stored over silica gel without reduced pressure, then over […] under reduced pressure (65 mm Hg) to dehydrate the hydrate. Once a stable weight was achieved over P2O5, samples were re-hydrated by storing them at 33% RH to 95% RH, in parallel with the hygroscopicity study as described above.
Water contents were measured by coulometric KF (Karl Fischer) titration.

## COc1cc2c(cc1OC)CN(CCc1ccc(NC(=O)c3cc(OC)c(OC)cc3NC(=O)c3cnc4ccccc4c3)cc1)CC2 [Example 1, Quinoline-3-carboxylic acid (2-{4-[2-(6,7-dimethoxy-3,4-dihydro-1H-isoquinolin-2-yl)-ethyl]-phenylcarbamoyl}-4,5-dimethoxy-phenyl)-amide]
75% RH, cumulative time 2441.25 h
  Cumulative % change Dehydration/Rehydration: 1.26%
75% RH, cumulative time 2482.00 h
  Cumulative % change Dehydration/Rehydration: 1.23%
75% RH, cumulative time 2577.75 h
  Cumulative % change Dehydration/Rehydration: 1.35%
75% RH, cumulative time 2609.75 h
  Cumulative % change Dehydration/Rehydration: 1.38%
75% RH, cumulative time 2681.25 h
  Cumulative % change Dehydration/Rehydration: 1.41%
75% RH, cumulative time 2770.25 h
  Cumulative % change Dehydration/Rehydration: 1.36%
75% RH, cumulative time 2817.75 h
  Cumulative % change Dehydration/Rehydration: 1.44%
95% RH, cumulative time 2825.25 h
  Cumulative % change Dehydration/Rehydration: 2.28%
95% RH, cumulative time 2841.75 h
  Cumulative % change Dehydration/Rehydration: 2.73%
95% RH, cumulative time 2915.75 h
  Cumulative % change Dehydration/Rehydration: 3.06%
95% RH, cumulative time 2937.75 h
  Cumulative % change Dehydration/Rehydration: 3.21%
95% RH, cumulative time 2991.25 h
  Cumulative % change Dehydration/Rehydration: 3.25%
95% RH, cumulative time 3082.25 h
  Cumulative % change Dehydration/Rehydration: 3.86%
95% RH, cumulative time 3130.00 h
  Cumulative % change Dehydration/Rehydration: 4.12%
95% RH, cumulative time 3182.25 h
  Cumulative % change Dehydration/Rehydration: 3.99%
95% RH, cumulative time 3252.25 h
  Cumulative % change Dehydration/Rehydration: 4.19%
95% RH, cumulative time 3350.25 h
  Cumulative % change Dehydration/Rehydration: 4.22%
95% RH, cumulative time 3422.25 h
  Cumulative % change Dehydration/Rehydration: 4.35%
95% RH, cumulative time 3636.25 h
  Cumulative % change Dehydration/Rehydration: 5.31%
95% RH, cumulative time 4332.75 h
  Cumulative % change Dehydration/Rehydration: 5.58%
P2O5 with vacuum, cumulative time 425.00 h
  Cumulative % change Dehydration/Rehydration: −10.85%
P2O5 with vacuum, cumulative time 452.00 h
  Cumulative % change Dehydration/Rehydration: −11.00%
P2O5 with vacuum, cumulative time 476.75 h
  Cumulative % change Dehydration/Rehydration: −11.19%
P2O5 with vacuum, cumulative time 570.25 h
  Cumulative % change Dehydration/Rehydration: −11.43%
P2O5 with vacuum, cumulative time 641.00 h
  Cumulative % change Dehydration/Rehydration: −11.35%
P2O5 with vacuum, cumulative time 760.50 h
  Cumulative % change Dehydration/Rehydration: −11.51%
P2O5 with vacuum, cumulative time 904.25 h
  Cumulative % change Dehydration/Rehydration: −11.46%
P2O5 with vacuum, cumulative time 1071.00 h
  Cumulative % change Dehydration/Rehydration: −11.54%
P2O5 with vacuum, cumulative time 1144.00 h
  Cumulative % change Dehydration/Rehydration: −11.48%
Before dehydration
  initial water content of the sample: 12.5%
Corresponding to the net weight change
  notional water content after dehydration and re-hydration at 33% RH: about 11.5%
Dehydrated then re-hydrated at 33% RH
  net weight change after dehydration and re-hydration at 33% RH: about −1%
Dehydration over increasing desiccating conditions
  final weight change on dehydration: −11.5%
95% RH, cumulative time 4332.75 h (end)
  KF moisture result: (15.81) % w/w
Printed in first 33% RH row (1147.25 h), after dehydration over P2O5
  KF moisture result: (3.82) % w/w
Printed in first row (silica, no vacuum, 3.00 h), initial value before dehydration
  KF moisture result: (12.53) % w/w
re-hydration at 33% RH, cumulative time 1147.25 h
  Cumulative % change Dehydration/Rehydration: −6.61%
re-hydration at 33% RH, cumulative time 1150.75 h
  Cumulative % change Dehydration/Rehydration: −4.80%
re-hydration at 33% RH, cumulative time 1168.00 h
  Cumulative % change Dehydration/Rehydration: −2.47%
re-hydration at 33% RH, cumulative time 1240.75 h
  Cumulative % change Dehydration/Rehydration: −0.68%
re-hydration at 33% RH, cumulative time 1268.50 h
  Cumulative % change Dehydration/Rehydration: −0.62%
re-hydration at 33% RH, cumulative time 1312.50 h
  Cumulative % change Dehydration/Rehydration: −0.62%
re-hydration at 33% RH, cumulative time 1431.25 h
  Cumulative % change Dehydration/Rehydration: −0.83%
re-hydration at 33% RH, cumulative time 1502.25 h
  Cumulative % change Dehydration/Rehydration: −0.66%
re-hydration at 33% RH, cumulative time 1672.50 h
  Cumulative % change Dehydration/Rehydration: −0.91%
re-hydration at 33% RH, cumulative time 1741.50 h
  Cumulative % change Dehydration/Rehydration: −0.97%
silica, no vacuum, cumulative time 3.00 h
  Cumulative % change Dehydration/Rehydration: −2.29%
silica, no vacuum, cumulative time 8.50 h
  Cumulative % change Dehydration/Rehydration: −3.58%
silica, no vacuum, cumulative time 24.50 h
  Cumulative % change Dehydration/Rehydration: −5.92%
silica, no vacuum, cumulative time 30.50 h
  Cumulative % change Dehydration/Rehydration: −6.39%
silica, no vacuum, cumulative time 56.00 h
  Cumulative % change Dehydration/Rehydration: −8.06%
silica, no vacuum, cumulative time 80.00 h
  Cumulative % change Dehydration/Rehydration: −8.50%
silica, no vacuum, cumulative time 237.50 h
  Cumulative % change Dehydration/Rehydration: −8.96%
silica, no vacuum, cumulative time 288.50 h
  Cumulative % change Dehydration/Rehydration: −9.07%
silica, with vacuum, cumulative time 308.00 h
  Cumulative % change Dehydration/Rehydration: −9.07%
silica, with vacuum, cumulative time 401.00 h
  Cumulative % change Dehydration/Rehydration: −8.76%
